The term Inhibition denotes the percentage by which the read-out fell short of the control. A low value points to a weak effect.

The values that follow come from US20090143484A1, “USE OF GARLIC OIL TO INCREASE BIOAVAILABILITY OF COENZYME Q-10” (priority 2007, published 2009).

Series [1] deals with Caco-2 HTB-37 (human colon adenocarinoma). Kind of series: Absorption testing using Caco-2 cells (cellular uptake of CoQ10, HPLC). The series is classed as in vitro ADME. The conditions noted are these: 37° C., up to 2 h. The procedure: Caco-2 HTB-37 (human colon adenocarinoma), obtained from ATCC, were cultured in DMEM (Dulbecco/Vogt modified Eagle's minimal essential medium) containing 20% FCS (Fetal Calf Serum), 1% nonessential amino acids, 0.83 mM L-glutamine and 1% penicillin-streptomycin at 37° C. in a humified atmosphere of CO2. Cells were grown in 75 cm^2 culture-flasks (T75) and their medium was replaced every third day. As soon as confluency was reached—once a week—they were split using trypsin.
After discarding the old medium, the monolayer was washed with 10 mL PBS. Subsequently, 3 mL trypsin was added in order to detach the cells. […]
The remaining 9 mL cell-suspension was used for experiments and was therefore transferred into a 15 mL falcon. After the cells had been counted by using a Neubauer-chamber, cells were seeded into 6 Well Thin Certs and 6 Wells at a density of 3×10^5 and 6.76×10^5, respectively. […]
The optimum amount of the emulsifier lecithin had to be determined individually for each sample. […]
A reversed-phase column (Spherimage-80) with 5 μm pore size and […] was used. […] Coenzyme Q10 (oxidized and reduced) were monitored at 275 nm.
CoQ10 was determined in the media (outside the cells) and in the cells. Both, oxidized and reduced CoQ10, were quantified. […]

Series [2] has as its system Human LDL. Put plainly: Prevention of LDL oxidation (CuSO4-initiated conjugated diene formation at 234 nm). The series is classed as biochemical. Particulars: LDL 0.1 mg/ml. The procedure: Human LDL were obtained by ultracentrifugation from fresh human blood, followed by dialysis against in 10 mM PBS (pH 7.4) at 4° C. in the dark for 24 h. LDL (0.1 mg/ml) were mixed with different amounts of active constituents. Reaction was initiated by adding a solution of CuSO4 (10 μM); samples were then incubated at 37° C. for 22 h. The formation of conjugated diene was measured at 234 nm using a Hewlett-Packard spectrophotometer (Agilent, Palo Alto).
Data evaluation was performed by comparison of the slope of increase in diene-formation. The steepest slope (i.e. without addition of anti-oxidants) was set to 100%. Results are given as relative %.
The lag-time until start of diene formation was estimated from the kinetic curves obtained. Results are given in minutes.

On to `COC1=C(OC)C(=O)C(C/C=C(\C)CC/C=C(\C)CC/C=C(\C)CC/C=C(\C)CC/C=C(\C)CC/C=C(\C)CC/C=C(\C)CC/C=C(\C)CC/C=C(\C)CCC=C(C)C)=C(C)C1=O` [CoQ10], for which the “content of CoQ10 in the media during the incubation conditions” value in series [1] was “stable”. Also, the Inhibition in series [2] (0.1 mg/mL of CoQ10) is listed as 13%; in series [2] (1 mg/mL of CoQ10), 43%; in series [2] (1 mg/mL of CoQ10, listed as CoQ-10), “about 43%”; in series [2] (10 mg/mL of CoQ10) it was 68%. The values for the Residual activity in series [2] (0.1 mg/mL of CoQ10), in series [2] (1 mg/mL of CoQ10) and in series [2] (10 mg/mL of CoQ10) were 87%, 57% and 32%, respectively. Moreover, the “Lag Time” value in series [2] (lag time to start of LDL-oxidation, Co Q10 1 mg/mL) is on record as 146 min.
